The record followed here is ChEMBL document CHEMBL3600373, “Mapping Selective Inhibition of the Cancer-Related Carbonic Anhydrase IX Using Structure-Activity Relationships of Glucosyl-Based Sulfamates” (J Med Chem, 2015).

SMILES strings stand for the structures.

As a reminder, the Ki is the dissociation constant of the complex between target and ligand, obtained from inhibition or displacement. For orientation: Kd means the equilibrium constant for the complex coming apart. A lower Kd goes with a tighter complex.

The target of experiment [1] is T1, Carbonic anhydrase 9 (Homo sapiens, UniProt Q16790).
Description: Inhibition of human recombinant CA9 expressed in Escherichia coli by stopped flow CO2 hydration assay
A further experiment deals with Carbonic anhydrase 12 (Homo sapiens, UniProt O43570). Briefly: Inhibition of human recombinant CA12 expressed in Escherichia coli by stopped flow CO2 hydration assay.
Chain of Carbonic anhydrase 12 (O43570 whole entry): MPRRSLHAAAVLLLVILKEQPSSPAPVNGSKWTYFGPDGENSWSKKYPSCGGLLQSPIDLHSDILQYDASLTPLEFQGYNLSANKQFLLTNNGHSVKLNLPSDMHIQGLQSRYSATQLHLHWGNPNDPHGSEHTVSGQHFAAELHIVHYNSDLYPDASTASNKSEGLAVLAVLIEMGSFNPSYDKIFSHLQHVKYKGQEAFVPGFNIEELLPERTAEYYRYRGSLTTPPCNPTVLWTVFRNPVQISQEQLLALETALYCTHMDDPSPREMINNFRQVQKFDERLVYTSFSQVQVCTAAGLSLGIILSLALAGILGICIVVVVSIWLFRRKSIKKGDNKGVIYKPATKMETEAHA
Experiment [2] addresses T1, Carbonic anhydrase 9. Briefly: Binding affinity to human CA9.
The target of another experiment is Carbonic anhydrase 2 (Homo sapiens, UniProt P00918). Briefly: Binding affinity to human CA2.

For `CC(=O)OC[C@H]1O[C@@H](S(=O)(=O)NCCCCCOS(N)(=O)=O)[C@H](OC(C)=O)[C@@H](OC(C)=O)[C@@H]1OC(C)=O`, the Ki on Carbonic anhydrase 9 [1] is 2 nM; on Carbonic anhydrase 12, 9 nM.

For the molecule `OC[C@H]1O[C@@](CO)(O[C@H]2O[C@H](CO)[C@@H](O)[C@H](O)[C@H]2O)[C@@H](O)[C@@H]1O` [SUCROSE], the equilibrium dissociation constant (Kd) at Carbonic anhydrase 9 [2] is 150 mM; on Carbonic anhydrase 2 it was 450 mM.
